Consider 3 substances from patent publication US20240083944A1 (priority 2021, published 2024).

In series [1] the test system is SARS-CoV-2. Description: Mouse Efficacy Model. Format: in vivo, male K18-hACE2 mice. The conditions noted are these: 100 mg/kg (tid) for three days, mice infected with SARS-CoV-2.
Series [2] deals with SARS-CoV-2 pseudotyped HIV-1 virions, B.1.1.7 (Alpha).
A short description of series [3]: Pharmacokinetic analysis in mouse. The following applies: 3 mg/kg; for half-life: in vivo. Format: in vivo. An excerpt: In one embodiment, the multimeric binding complex additionally comprises a half-life extending moiety. References herein to half-life extending moieities refer to any moiety capable of extending the half-life of the resultant multimeric binding complex in vivo when compared to the half-life of said multimeric binding complex in the absence of said half-life extending moiety.

Starred links: 1 amine or outer side, 2 acyl side, 3 side chain; linkers in the order of their positions; H or OH if unused. Positions of bridges follow the written chain, without caps; N, C: chain ends. Non-standard residues stand in square brackets, D forms with d. Chains are numbered I, II in the order given. X3 = O=C(CCCc1ccc(I)cc1)NCCOCCOCCOCCOCCOCCOCCOCCOCCOCCOCCn1cc(CCC(=O)NC(COCCC(=O)NCCOCCOCCOCCOCCOCCOCCOCCOCCOCCOCCn2cc(CCC(=O)[*:1])nn2)(COCCC(=O)NCCOCCOCCOCCOCCOCCOCCOCCOCCOCCOCCn2cc(CCC(=O)[*:2])nn2)COCCC(=O)NCCOCCOCCOCCOCCOCCOCCOCCOCCOCCOCCn2cc(CCC(=O)[*:3])nn2)nn1; X2 = O=C(CCOCCN(CCOCCC(=O)NCCOCCOCCOCCOCCOCCOCCOCCOCCOCCOCCn1cc(CCC(=O)[*:2])nn1)CCOCCC(=O)NCCOCCOCCOCCOCCOCCOCCOCCOCCOCCOCCn1cc(CCC(=O)[*:3])nn1)NCCOCCOCCOCCOCCOCCOCCOCCOCCOCCOCCn1cc(CCC(=O)[*:1])nn1; X1 = C(c1nc(C[*:2])nc(C[*:3])n1)[*:1]; hArg = N=C(N)NCCCC[C@H](N)C(=O)O; tBuAla = CC(C)(C)C[C@H](N)C(=O)O; Agb = N=C(N)NCC[C@H](N)C(=O)O

Turning to “I: Ac-CPYVAG[Agb][dA]TCL[tBuAla]CK-NH2 / II: Ac-CPYVAG[Agb][dA]TCL[tBuAla]CK-NH2 / III: Ac-CPYVAG[Agb][dA]TCL[tBuAla]CK-NH2 (linker I:1-I:10-I:13, II:1-II:10-II:13, III:1-III:10-III:13 via X1; linker I:14-II:14-III:14 via X2) [BCY17021]”, in series [1] (FIG. 4 (A)), the “total viral RNA in nasal turbinate” value was “reduction of total viral RNA in nasal turbinate”. Besides, the “subgenomic RNA in nasal turbinate” value in series [1] (FIG. 4 (B)) was “reduction of subgenomic RNA in nasal turbinate”. In addition, the “total viral RNA in lung” value in series [1] (FIG. 4 (C)) is given as “reduction of total viral RNA in lung”. Moreover, the “subgenomic RNA in lung” value in series [1] (FIG. 4 (D)) was “reduction of subgenomic RNA in lung”. For the same substance, the IC50 in series [2] came out at 0.3 nM.
In series [3], “I: Ac-CPYVAG[hArg][dA]TCL[tBuAla]CK-NH2 / II: Ac-CPYVAG[hArg][dA]TCL[tBuAla]CK-NH2 / III: Ac-CPYVAG[hArg][dA]TCL[tBuAla]CK-NH2 (linker I:1-I:10-I:13, II:1-II:10-II:13, III:1-III:10-III:13 via X1; linker I:14-II:14-III:14 via X2) [BCY18208]” showed a half-life of 0.3 h.
Consider “I: Ac-CPYVAG[hArg][dA]TCL[tBuAla]CK-NH2 / II: Ac-CPYVAG[hArg][dA]TCL[tBuAla]CK-NH2 / III: Ac-CPYVAG[hArg][dA]TCL[tBuAla]CK-NH2 (linker I:1-I:10-I:13, II:1-II:10-II:13, III:1-III:10-III:13 via X1; linker I:14-II:14-III:14 via X3) [BCY19602]”, for which the half-life improvement in series [3] (BCY19602 versus BCY18208 (no half-life extending moiety)) is on record as 10 fold. In series [3], this substance had a half-life of 3.1 h.

By IC50 is commonly meant the concentration needed to halve the response being measured. One may read the half-life as how long it takes for the measured level to halve. A high value points to slow loss.
